Measured values reported in ChEMBL document CHEMBL1201862, “PubChem BioAssay data set” (2004).
The source made the active and inactive calls.

How the values were obtained:
Bcl-2-like protein 10 = target: T1, Bcl-2-like protein 10 (Homo sapiens, UniProt Q9HD36); experiment: Biochemical TR3 FP assay of Bcl-B inhibitor potency, EC50 (AID 1243); type: functional
T1 sequence (Q9HD36 whole entry): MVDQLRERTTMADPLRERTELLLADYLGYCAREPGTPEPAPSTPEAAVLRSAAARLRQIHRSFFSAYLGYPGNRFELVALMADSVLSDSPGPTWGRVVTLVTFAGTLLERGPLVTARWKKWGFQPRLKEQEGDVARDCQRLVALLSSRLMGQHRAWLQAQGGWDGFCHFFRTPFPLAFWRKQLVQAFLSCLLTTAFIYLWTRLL

[1] = target: T2, Luciferin 4-monooxygenase (Photinus pyralis, UniProt P08659); experiment: Counter Screen for Luciferase-based Assay Positives. [Related pubchem assays: 620, 618, 411 ]
T2 sequence (P08659 whole entry): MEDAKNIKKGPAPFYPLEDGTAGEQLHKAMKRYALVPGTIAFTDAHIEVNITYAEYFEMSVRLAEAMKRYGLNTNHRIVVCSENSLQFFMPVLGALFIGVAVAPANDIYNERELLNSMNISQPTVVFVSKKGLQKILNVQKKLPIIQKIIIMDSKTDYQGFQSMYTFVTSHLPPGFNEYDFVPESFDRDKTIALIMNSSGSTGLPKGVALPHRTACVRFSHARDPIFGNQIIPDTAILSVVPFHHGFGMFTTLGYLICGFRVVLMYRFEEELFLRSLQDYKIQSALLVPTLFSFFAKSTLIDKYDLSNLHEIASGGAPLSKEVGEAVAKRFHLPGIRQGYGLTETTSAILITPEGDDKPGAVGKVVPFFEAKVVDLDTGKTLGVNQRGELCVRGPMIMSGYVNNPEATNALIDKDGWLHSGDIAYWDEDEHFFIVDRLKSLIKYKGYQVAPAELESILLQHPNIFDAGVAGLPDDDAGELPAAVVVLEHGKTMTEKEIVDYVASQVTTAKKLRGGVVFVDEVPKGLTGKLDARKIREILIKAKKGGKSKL

BJ [2] = experiment: cytotoxicity toward BJ-TERT fibroblasts, dose response, cell-based, RAS-independent, luminescence (AID 1933); type: functional; settings: Homo sapiens
[3] = Luminescence Cell-Based Dose Confirmation HTS to Identify Inhibitors of Platelet Dense Granule Release. [Related pubchem assays: 1663 (Primary HTS), 1678 (Summary of Project)]; type: functional
[4] = cytotoxicity toward DRD oncogenic fibroblasts, dose response, cell-based, non-viral oncogenic, luminescence (AID 1934); type: functional; settings: Homo sapiens
[5] = target: Cyclin-dependent kinase 5/CDK5 activator 1 (Homo sapiens, UniProt Q00535); experiment: CDK5/p35 kinase inhibitors, dose response, biochemical, cherry-picked samples, set 2 (AID 504545)
Chain of Cyclin-dependent kinase 5/CDK5 activator 1 (Q00535 whole entry): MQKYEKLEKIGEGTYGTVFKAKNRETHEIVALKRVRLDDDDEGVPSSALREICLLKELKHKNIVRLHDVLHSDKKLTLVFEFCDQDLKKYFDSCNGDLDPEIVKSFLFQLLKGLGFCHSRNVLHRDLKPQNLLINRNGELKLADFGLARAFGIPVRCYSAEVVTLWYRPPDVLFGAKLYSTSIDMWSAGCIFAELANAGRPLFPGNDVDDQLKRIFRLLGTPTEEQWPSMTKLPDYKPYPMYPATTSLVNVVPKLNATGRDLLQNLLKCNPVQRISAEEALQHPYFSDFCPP
Chain of Cyclin-dependent kinase 5/CDK5 activator 1 (Q15078 whole entry, further chain): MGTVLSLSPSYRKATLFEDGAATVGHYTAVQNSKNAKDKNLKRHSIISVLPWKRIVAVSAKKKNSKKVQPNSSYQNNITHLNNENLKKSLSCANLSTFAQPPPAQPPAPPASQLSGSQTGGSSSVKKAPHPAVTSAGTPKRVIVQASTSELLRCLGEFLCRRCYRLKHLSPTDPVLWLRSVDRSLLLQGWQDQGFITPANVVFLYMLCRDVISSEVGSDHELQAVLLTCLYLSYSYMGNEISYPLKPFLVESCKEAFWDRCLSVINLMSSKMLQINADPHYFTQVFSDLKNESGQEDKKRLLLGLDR

BJ [6] = experiment: cells; type: functional, cell-based; settings: Homo sapiens
[7] = target: T2, Luciferin 4-monooxygenase; experiment: firefly luciferase enzyme inhibitors, dose response, biochemical, luminescence (AID 1891)
HT-1080 = experiment: cytotoxicity in HT1080 fibrosarcoma cells, cell-based, fluorescence readout (AID 620); type: functional; settings: Homo sapiens
BJ [8] = experiment: cytotoxicity toward BJ-TERT-LT-ST fibroblasts, dose response, cell-based, RAS-independent, luminescence (AID 1935); type: functional; settings: Homo sapiens;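 note: BJ fibroblasts immortalized with TERT plus LT and ST oncogenes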
BJ [9] = experiment: cytotoxicity toward Ras-transformed BJeLR fibroblasts, dose response, cell-based, alamar blue fluorescence, cherrypicked samples (AID 2631); type: functional; settings: Homo sapiens;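 note: confirmatory dose-response assay in RAS-dependent BJ fibroblasts engineered with TERT, LT and ST, with cytotoxicity read by fluorescence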
NS3 = NS3 (Hepatitis C virus, UniProt A3EZJ3); experiment: PubChem AID 2173; parameters: species or system Hepacivirus hominis
Chain of NS3 (A3EZJ3 whole entry): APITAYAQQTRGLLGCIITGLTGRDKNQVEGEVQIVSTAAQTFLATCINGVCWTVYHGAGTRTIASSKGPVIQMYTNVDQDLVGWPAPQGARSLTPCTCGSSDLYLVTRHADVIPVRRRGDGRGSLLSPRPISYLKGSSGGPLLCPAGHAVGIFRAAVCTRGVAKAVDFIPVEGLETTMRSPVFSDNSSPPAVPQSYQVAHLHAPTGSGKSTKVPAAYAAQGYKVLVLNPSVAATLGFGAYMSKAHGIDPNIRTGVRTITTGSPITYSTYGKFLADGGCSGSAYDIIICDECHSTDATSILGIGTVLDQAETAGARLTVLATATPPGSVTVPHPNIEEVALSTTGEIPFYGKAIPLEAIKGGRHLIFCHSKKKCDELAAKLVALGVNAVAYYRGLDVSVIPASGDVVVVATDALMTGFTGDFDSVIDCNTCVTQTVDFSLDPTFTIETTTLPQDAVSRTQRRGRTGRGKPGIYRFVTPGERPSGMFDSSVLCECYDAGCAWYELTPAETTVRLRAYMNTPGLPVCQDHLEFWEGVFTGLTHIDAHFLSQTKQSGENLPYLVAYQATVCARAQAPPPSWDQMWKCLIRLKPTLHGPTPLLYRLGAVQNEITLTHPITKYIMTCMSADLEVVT

fMet-Leu-Phe receptor = target: T3, fMet-Leu-Phe receptor (Homo sapiens, UniProt P21462); experiment: FPR ligands, dose response (AID 519); type: functional
T3 sequence (P21462 whole entry): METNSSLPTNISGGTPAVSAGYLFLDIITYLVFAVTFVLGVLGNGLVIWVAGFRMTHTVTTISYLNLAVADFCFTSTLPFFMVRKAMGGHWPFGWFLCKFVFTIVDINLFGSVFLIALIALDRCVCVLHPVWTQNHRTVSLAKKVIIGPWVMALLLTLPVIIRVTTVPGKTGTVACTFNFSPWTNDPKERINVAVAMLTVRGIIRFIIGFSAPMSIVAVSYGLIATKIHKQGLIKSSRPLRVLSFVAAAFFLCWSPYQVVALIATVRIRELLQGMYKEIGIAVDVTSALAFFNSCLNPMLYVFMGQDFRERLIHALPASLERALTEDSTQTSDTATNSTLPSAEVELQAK

[10] = target: T4, Short transient receptor potential channel 4 (Mus musculus, UniProt Q9QUQ5); experiment: mouse TRPC4 channel inhibitors, dose response, cell-based, HEK293 TRPC4/mu-opioid, Fluo-4 calcium (AID 434942); type: functional;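 note: potency of inhibitors blocking the TRPC4 calcium response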
T4 sequence (Q9QUQ5 whole entry): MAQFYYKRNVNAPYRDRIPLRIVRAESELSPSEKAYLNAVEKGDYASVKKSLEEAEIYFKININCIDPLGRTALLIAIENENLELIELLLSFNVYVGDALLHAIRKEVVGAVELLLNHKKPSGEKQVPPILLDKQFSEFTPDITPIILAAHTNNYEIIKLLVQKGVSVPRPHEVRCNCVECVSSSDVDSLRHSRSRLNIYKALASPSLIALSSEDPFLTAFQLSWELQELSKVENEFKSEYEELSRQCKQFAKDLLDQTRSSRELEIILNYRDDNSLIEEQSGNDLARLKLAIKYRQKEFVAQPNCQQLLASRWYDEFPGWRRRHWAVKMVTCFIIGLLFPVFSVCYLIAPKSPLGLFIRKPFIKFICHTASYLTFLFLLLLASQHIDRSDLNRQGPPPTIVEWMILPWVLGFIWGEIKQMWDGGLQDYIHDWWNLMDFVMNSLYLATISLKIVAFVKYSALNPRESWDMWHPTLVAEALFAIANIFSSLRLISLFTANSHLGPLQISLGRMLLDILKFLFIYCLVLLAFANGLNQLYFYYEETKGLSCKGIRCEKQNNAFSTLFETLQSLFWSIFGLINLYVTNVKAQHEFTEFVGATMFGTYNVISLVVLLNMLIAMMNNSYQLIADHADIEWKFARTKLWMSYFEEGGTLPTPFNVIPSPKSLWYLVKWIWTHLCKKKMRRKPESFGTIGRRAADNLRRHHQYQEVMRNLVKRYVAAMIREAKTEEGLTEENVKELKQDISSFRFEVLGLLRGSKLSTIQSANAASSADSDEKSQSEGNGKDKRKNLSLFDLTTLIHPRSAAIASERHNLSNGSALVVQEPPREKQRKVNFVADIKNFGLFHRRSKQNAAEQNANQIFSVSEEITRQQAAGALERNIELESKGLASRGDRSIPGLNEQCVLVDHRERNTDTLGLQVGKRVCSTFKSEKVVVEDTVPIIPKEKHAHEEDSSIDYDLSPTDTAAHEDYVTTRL

Aminopeptidase N = target: T5, Aminopeptidase N (Plasmodium falciparum FcB1/Columbia, UniProt O96935); experiment: P. falciparum M1AAP inhibitors, biochemical, fluorogenic H-Leu-NHMec substrate, 1536-well (AID 1445); parameters: species or system Plasmodium falciparum 3D7, 3D7
T5 sequence (O96935 whole entry): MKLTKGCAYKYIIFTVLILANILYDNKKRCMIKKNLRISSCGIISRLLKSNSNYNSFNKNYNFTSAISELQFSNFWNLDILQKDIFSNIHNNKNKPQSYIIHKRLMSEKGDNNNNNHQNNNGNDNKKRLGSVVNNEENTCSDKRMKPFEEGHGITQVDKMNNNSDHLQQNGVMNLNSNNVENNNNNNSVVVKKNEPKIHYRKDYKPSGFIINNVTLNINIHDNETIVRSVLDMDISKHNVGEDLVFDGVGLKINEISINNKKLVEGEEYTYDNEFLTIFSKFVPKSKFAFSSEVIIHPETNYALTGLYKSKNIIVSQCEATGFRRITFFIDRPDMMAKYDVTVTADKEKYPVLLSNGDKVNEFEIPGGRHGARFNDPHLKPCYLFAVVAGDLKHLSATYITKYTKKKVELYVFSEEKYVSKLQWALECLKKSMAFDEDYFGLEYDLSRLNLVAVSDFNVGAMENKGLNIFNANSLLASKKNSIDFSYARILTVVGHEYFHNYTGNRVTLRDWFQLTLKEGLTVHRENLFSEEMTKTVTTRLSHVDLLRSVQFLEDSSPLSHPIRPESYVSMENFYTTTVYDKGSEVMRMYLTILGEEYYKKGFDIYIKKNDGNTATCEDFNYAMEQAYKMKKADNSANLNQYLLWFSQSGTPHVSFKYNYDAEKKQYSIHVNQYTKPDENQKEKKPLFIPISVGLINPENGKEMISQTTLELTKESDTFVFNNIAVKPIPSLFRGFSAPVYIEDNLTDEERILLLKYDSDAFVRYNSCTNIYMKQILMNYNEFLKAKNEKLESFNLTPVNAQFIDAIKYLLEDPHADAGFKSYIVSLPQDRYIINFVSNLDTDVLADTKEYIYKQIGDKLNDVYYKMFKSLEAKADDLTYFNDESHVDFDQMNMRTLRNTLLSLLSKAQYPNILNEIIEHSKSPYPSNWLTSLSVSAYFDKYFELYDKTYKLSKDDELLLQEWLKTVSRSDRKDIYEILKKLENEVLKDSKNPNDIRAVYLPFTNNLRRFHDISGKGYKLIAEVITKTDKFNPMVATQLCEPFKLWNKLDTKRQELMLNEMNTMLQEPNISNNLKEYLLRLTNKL

[11] = HIV-1 Env-mediated cell fusion inhibitors, dose response, CCR5-tropic Env (AID 2279); type: functional
HEK293 = experiment: Fluorescence-based counterscreen for potentiators or agonists of NPY-Y2: cell-based high-throughput dose response assay to identify inhibitors of cyclic nucleotide gated ion channel (CNGC) activity. In this assay, the parental HEK293 cell line transfected with a cyclic-nucleotide gated ion channel (CNGC)-based cAMP sensor is used to measure inhibition of isoproterenol-induced CNGC activity by test compound.; type: functional; settings: Homo sapiens;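 note: stimulus is 1 µM isoproterenol at EC100 plus PDE inhibitor Ro 20-1724 at 25 µM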
[12] = target: T6, Neuropeptide Y receptor type 2 (Homo sapiens, UniProt P49146); experiment: Fluorescence-based cell-based high-throughput dose response assay for agonists of NPY-Y2. [Related pubchem assays: 1703 (Screening assay (CNGC inhibitors).), 1359 (Screening assay (NPY-Y2 potentiators or agonists).), 1304 (Screening assay (NPY-Y1 potentiators or agonists).), 1710 (Screening assay (NPY-Y2 agonists).), 1791 (Summary AID.)]; type: functional
T6 sequence (P49146 whole entry): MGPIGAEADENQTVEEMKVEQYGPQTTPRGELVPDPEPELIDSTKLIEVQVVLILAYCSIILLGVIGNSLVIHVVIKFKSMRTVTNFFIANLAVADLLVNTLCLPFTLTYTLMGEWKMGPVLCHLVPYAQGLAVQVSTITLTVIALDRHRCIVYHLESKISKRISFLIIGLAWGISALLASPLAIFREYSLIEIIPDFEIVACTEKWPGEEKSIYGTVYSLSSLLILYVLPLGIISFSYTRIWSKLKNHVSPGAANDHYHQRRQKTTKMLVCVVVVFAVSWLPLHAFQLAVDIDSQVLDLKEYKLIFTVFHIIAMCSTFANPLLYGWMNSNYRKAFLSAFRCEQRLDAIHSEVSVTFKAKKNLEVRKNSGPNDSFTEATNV

[13] = target: T7, Neuropeptide Y receptor type 1 (Homo sapiens, UniProt P25929); experiment: Fluorescence-based counterscreen for agonists of NPY-Y2: cell-based high-throughput dose response assay for agonists of NPY-Y1.; type: functional
T7 sequence (P25929 whole entry): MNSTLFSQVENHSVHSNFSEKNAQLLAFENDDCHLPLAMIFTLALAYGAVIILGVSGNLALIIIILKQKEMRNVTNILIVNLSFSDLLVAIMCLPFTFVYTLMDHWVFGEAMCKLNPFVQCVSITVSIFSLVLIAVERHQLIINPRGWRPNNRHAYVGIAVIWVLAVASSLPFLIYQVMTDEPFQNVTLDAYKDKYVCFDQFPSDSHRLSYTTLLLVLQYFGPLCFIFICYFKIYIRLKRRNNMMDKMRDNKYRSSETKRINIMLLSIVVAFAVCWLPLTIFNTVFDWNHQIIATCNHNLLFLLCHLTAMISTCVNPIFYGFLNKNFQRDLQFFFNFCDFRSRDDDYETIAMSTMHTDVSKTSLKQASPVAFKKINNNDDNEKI

[14] = A Cell Based Secondary Assay To Explore Cytotoxicity of Compounds that Sensitize Mycobacterium Tuberculosis to Beta-Lactam Antibiotics.; type: functional
Staphylococcus aureus = experiment: Inhibitors of Bacterial Quorum Sensing Structure Activity Relationship (SAR) Analysis: Dose Response Assay. [Related pubchem assays: 700, 527 ]; type: functional, organism-based
Aspartyl aminopeptidase = target: T8, Aspartyl aminopeptidase (Plasmodium falciparum 3D7, UniProt Q8I2J3)
T8 sequence (Q8I2J3 whole entry): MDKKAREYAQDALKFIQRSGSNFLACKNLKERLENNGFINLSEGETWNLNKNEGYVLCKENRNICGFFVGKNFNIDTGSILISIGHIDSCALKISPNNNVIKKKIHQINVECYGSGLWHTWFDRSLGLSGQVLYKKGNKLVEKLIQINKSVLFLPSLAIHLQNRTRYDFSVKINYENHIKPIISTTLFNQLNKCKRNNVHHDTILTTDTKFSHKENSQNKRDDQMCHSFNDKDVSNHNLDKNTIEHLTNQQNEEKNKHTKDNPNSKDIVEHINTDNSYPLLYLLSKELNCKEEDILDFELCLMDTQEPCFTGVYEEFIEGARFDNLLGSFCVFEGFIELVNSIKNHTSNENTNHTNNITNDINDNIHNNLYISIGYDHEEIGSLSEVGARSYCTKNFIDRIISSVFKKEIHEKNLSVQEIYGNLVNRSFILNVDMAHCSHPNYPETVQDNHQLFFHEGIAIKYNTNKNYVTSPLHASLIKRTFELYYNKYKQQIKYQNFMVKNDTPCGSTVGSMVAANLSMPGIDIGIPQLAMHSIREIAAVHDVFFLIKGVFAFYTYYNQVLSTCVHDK

Procathepsin L = Procathepsin L (Homo sapiens, UniProt P07711)
Chain of Procathepsin L (P07711 whole entry): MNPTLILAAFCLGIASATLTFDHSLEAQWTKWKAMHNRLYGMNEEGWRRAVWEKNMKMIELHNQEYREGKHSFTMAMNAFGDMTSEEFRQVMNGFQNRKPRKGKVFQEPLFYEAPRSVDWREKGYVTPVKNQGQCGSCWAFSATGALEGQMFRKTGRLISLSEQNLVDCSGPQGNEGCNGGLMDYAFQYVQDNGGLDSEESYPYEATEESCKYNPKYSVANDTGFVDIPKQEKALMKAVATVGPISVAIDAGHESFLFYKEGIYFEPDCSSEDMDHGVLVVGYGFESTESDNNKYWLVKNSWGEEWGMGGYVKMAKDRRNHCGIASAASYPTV

Structure (SMILES): COC(=O)C1=C(C)N(C)C(=O)NC1c1cc2c(cc1[N+](=O)[O-])OCO2 (stereo not drawn)
- EC50 (Bcl-2-like protein 10): 17.4 µM (active)

Structure (SMILES): COc1ccc(-c2cc3nc(C)cc(N)n3n2)cc1
- EC50 [1]: 2.85 µM (active)
- EC50 (BJ [2]): 3.85 µM (inconclusive)
- EC50 [3]: 0.621 µM (active)
- EC50 [4]: 6.14 µM (active)
- AC50 [5]: 17.5 µM (active)
- EC50 (BJ [6]): 4.45 µM (active)
- EC50 [7]: 0.513 µM (active)
- EC50 (HT-1080): > 50 µM (not active)
- EC50 (BJ [8]): 17.6 µM (active)
- EC50 (BJ [9]): > 133 µM (inactive)

Structure (SMILES): CCOc1ccc(C(=O)C2=C(O)C(=O)N(c3nc(C)c(C)s3)C2c2ccco2)cc1 (stereo not drawn)
- IC50 (NS3): 6.35 µM (active)
- Ki (fMet-Leu-Phe receptor): 57.7 µM (inactive)

Structure (SMILES): COc1cc(/C=C2\SC(=O)N(c3ccccc3Cl)C2=O)cc([N+](=O)[O-])c1O
- EC50 [10]: 1.06 µM (active)
- IC50 (Aminopeptidase N): 65.8 µM (active)
- IC50 [11]: 42.5 µM (active)

Structure (SMILES): NC(=O)c1ccc2nc(NC(=O)c3ccc(N)cc3)sc2c1
- EC50 (HEK293): > 35.4 µM (not active)
- EC50 [12]: > 35.4 µM (not active)
- EC50 [13]: > 35.4 µM (not active)

Structure (SMILES): O=C1/C(=C/c2ccncc2)CCc2ccccc21
- CC50 [14]: 35.4 µM (active)

Structure (SMILES): CCc1oc2ccccc2c1C(=O)c1ccc(O)cc1 [BENZARONE]
- IC50 (Staphylococcus aureus): 1.29 µM (active)

Structure (SMILES): O=C(O)c1ccc(O)c(O)c1 [PROTOCATECHUIC ACID]
- IC50 (Aspartyl aminopeptidase): 0.479 µM (active)
- IC50 (Procathepsin L): > 59.6 µM (not active)
